Experimental data taken from ChEMBL document CHEMBL3396980, “Total synthesis of Herbarin A and B, determination of their antioxidant properties and toxicity in zebrafish embryo model” (Bioorg Med Chem Lett, 2015).

Assays:
[1] = Antioxidant activity assessed as ferric ion reducing activity using fe3+-TPTZ assessed as fe2+-TPTZ formation at 0.1 to 1 mM by spectrophotometry based FRAP assay; type: physicochemical; conditions: 1000 µM
Danio rerio [2] = species: Danio rerio; assay: Toxicity in wild type zebrafish embryo in E3 medium assessed as teratogenicity treated at 9 to 190 nM for 2 days observed on 24 hrs of post fertilization by microscopy; type: organism-based; conditions: in vivo, 48 h, 0.19 µM
Danio rerio [3] = species: Danio rerio; assay: Toxicity in wild type zebrafish embryo in E3 medium treated for 2 days observed on 24 hrs of post fertilization by microscopy; type: organism-based; conditions: in vivo, 48 h

| SMILES | Activity [1] | Activity (Danio rerio [2]) | Activity (Danio rerio [3]) |
| --- | --- | --- | --- |
| COc1cc(=O)oc(/C=C/C(=O)O)c1C | Active | 100% |  |
| COc1cc(=O)oc(/C=C/C=C/C(=O)O)c1C | Active |  | Non-toxic |
